{"source": "patent US12486255B2", "about": "“Modulators of RAS GTPase” (Tosk, Inc., priority 2018, dated 2025)", "key": {"HT-1080 cells": {"test_system": "HT-1080 cells", "test": "Cell morphology assay", "assay_type": "cell-based, human", "conditions": "24 hours, 1.2-100 μM, Alexa Fluor 488 Phalloidin", "method": "FIG. 7, panels A-F, illustrate the effect of an exemplary compound of Structure 2 on the HT-1080 cells in a cell morphology assay. Effect of Structure 2 on the HT-1080 cells in cell morphology assay. HT1080 cells were seeded in 6-well plates at 300,000 per plate, incubated overnight and various amounts of Structure 2 (compound 1) in the DMSO vehicle or vehicle control added. After 24 hours, cells were washed, fixed with formaldehyde, stained with Alexa Fluor 488 Phalloidin and imaged using a fluorescence microscope. […]\nAn assay was performed (see e.g., Kato-Stankiewicz et al., Inhibitors of RAS/Raf-1 interaction identified by two-hybrid screening revert RAS-dependent transformation phenotypes in human cancer cells. Proc Natl Acad Sci USA. 2002; 99: 14398-403) to evaluate the ability of an inhibitor to dampen the RAS/RAF/MEK/ERK pathway and provide a reversion of cell appearance from a rounded to a flat, elongated morphology (Paterson et al., Activated nRAS controls the transformed phenotype of HT1080 human fibrosarcoma cells. Cell. 1987 Dec. 4; 51 (5):803-12). […] Cells were then washed 2 times with PBS and imaged using a Zeiss Axiovert 25 fluorescence microscope."}, "SW900 cells": {"test_system": "SW900 cells", "test": "Cytotoxicity assay, CellTiter-Glo 2.0, SW900 cells", "assay_type": "cell-based", "conditions": "SW900, human lung cancer cell expressing kRAS G12V; 48 hours", "method": "(§1) FIG. 4, panels A-B, illustrates the cytotoxicity of Structure 2 and Structure 3 on SW900 cells. The cytotoxicity of compounds of interest were tested against the human lung cancer cell line SW900 as described in the experimental section. SW900 cells express a G12V mutant kRAS. Compounds were incubated with cells for 48 hours and the assay was developed using Cell Titer Glo 2.0. IC50 vales were determined using GraphPad Prism 4.\n(§2) Compounds were assayed for inhibition of cell proliferation and killing cancer cells. Cytotoxicity assays were conducted according to the following general procedure. SW480, SW48, SW900, SW620 were all maintained in Leibowitz L15 media supplemented with 10% fetal bovine serum and 1% PenStrep and grown in a 37° C. incubator without supplemental CO2. Capan-1 cells were maintained in Iscove's Modified Dulbecco's Medium (ATCC 30-2005) containing 20% fetal bovine serum and 1% PenStrep and grown in a 37° C. incubator containing 5% CO2.\n(§3) For dose-response assays, SW480 cells were plated into 96 well plates (1 million/plate, ˜10,000/well, 250 μL media/well). Cells were allowed to settle and adhere to plate bottom overnight Compounds were placed in 500 μL media and mixed. Then 250 μL compounds+media was placed in an intermediate plate in row A. Rows B through H were filled with 125 μL media. […] Luminescence was read with FLx800 (BioTek Instruments)."}, "A431": {"test_system": "A431", "test": "Cytotoxicity assay, A431 cells", "assay_type": "cell-based", "conditions": "A431, human epidermoid carcinoma cell line expressing wild type kRAS", "method": "as §2"}, "H322": {"test_system": "H322", "test": "Cytotoxicity assay, H322 cells", "assay_type": "cell-based", "conditions": "H322, human lung cancer cell line expressing wild type kRAS", "method": "as §2"}, "SW620 cells": {"test_system": "SW620 cells", "test": "Cytotoxicity assay, CellTiter-Glo 2.0, SW620 cells", "assay_type": "cell-based", "conditions": "SW-620; SW620, human colon cancer cell line expressing mutant G12V kRAS; 48 hours", "method": "FIG. 6, panels A-B, illustrate the cytotoxicity of Structure 2 and Structure 3 on SW620 Cells. The cytotoxicity of compounds of interest were tested against the human colon cancer cell line SW620 as described in the experimental section. SW620 cells express a mutant G12V kRAS. Compounds were incubated with cells for 48 hours and the assay was developed using Cell Titer Glo 2.0. IC50 values were determined using GraphPad Prism4.\nas §2, §3"}, "HT29": {"test_system": "HT29", "test": "Cytotoxicity assay, HT29 cells", "assay_type": "cell-based", "conditions": "human colon cancer cell line HT29", "method": "as §2"}, "SW48 cells": {"test_system": "SW48 cells", "test": "Cytotoxicity assay, CellTiter-Glo 2.0, SW48 cells", "assay_type": "cell-based", "conditions": "SW48, human colon cancer cell line expressing wild type kRAS (EGF receptor mutation); 48 hours", "method": "as §1, with “3,” for “4,”, “SW48” for “SW900”, “colon” for “lung”, “the wild type kRAS but are driven by an EGF receptor mutation G1255A.” for “a G12V mutant kRAS.”\nas §2\nFor dose-response assays, SW480 cells were plated into 96 well plates (1 million/plate, ˜10,000/well, 250 μL media/well). Cells were allowed to settle and adhere to plate bottom overnight Compounds were placed in 500 μL media and mixed. […] Luminescence was read with FLx800 (BioTek Instruments)."}}}
{"molecule": "Cc1nc(-c2ccc(CNC(=O)c3cc(CC(C)C)nn3C)cc2)no1", "note": "[Structure 2, 3-isobutyl-1-methyl-N-(4-(5-methyl-1,2,4-oxadiazol-3-yl)benzyl)-1H-pyrazole-5-carboxamide]", "values": [{"measurement": "reversion of cell phenotype (morphology)", "setting": "HT-1080 cells", "result": "produced reversion of cell phenotype from the rounded to the flatter more elongated morphology"}, {"measurement": "IC50", "setting": "SW900 cells", "result": 351, "unit": "nM"}, {"measurement": "not cytotoxic at concentrations up to", "setting": "A431", "result": "> 40", "unit": "µM"}, {"measurement": "not cytotoxic at concentrations up to", "setting": "H322", "result": "> 200", "unit": "µM"}, {"measurement": "IC50", "setting": "SW620 cells", "result": 55, "unit": "nM"}, {"measurement": "not cytotoxic at concentrations up to", "setting": "HT29", "result": "> 40", "unit": "µM"}, {"measurement": "IC50", "setting": "SW48 cells", "result": 607, "unit": "nM"}]}
